Reference: US8802597B2, “Herbicidal pyrimidines” (E I du Pont de Nemours and Company, priority 2003, dated 2014)

Key:
Format in all cases: in vivo
[1] = test system: chickweed (Stellaria media); experiment: Test C postemergence; details: for Chickweed plant response rating: 125 g ai/ha, scale 0 to 100 (0 no effect, 100 complete control)
How it was run: (§1)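 Greenhouse herbicide screen, visual readout. Compound in solvent/surfactant applied preemergence at planting or postemergence to 1- to 4-leaf plants; assessed at 12–14 days on a 0–100 control scale.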

[2] = test system: barnyardgrass (Echinochloa crus-galli); experiment: Test A pre/postemergence
How it was run: (§2)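 After planting in loam and sand, species received test chemical as preemergence soil spray; postemergence spray went on 2–10 cm plants at 1–2 leaves at the same time. Evaluation: visual injury, ~10 d, 0 no effect to 100 complete control.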

[3] = test system: crabgrass (Digitaria sanguinalis); experiment: Test A pre/postemergence
How it was run: as §2

[4] = test system: yellow nutsedge (Cyperus esculentus); experiment: Test C pre/postemergence; details: Postemergence; for Nutsedge, Yellow plant response rating: 125 g ai/ha, scale 0 to 100 (0 no effect, 100 complete control)
How it was run: as §1

[5] = test system: velvetleaf (Abutilon theophrasti); experiment: Test C pre/postemergence; details: Postemergence; for Velvetleaf plant response rating: 125 g ai/ha, scale 0 to 100 (0 no effect, 100 complete control)
How it was run: as §1

[6] = test system: woolly cupgrass (Eriochloa villosa); experiment: Test C pre/postemergence; details: Postemergence; for Cupgrass, Woolly plant response rating: 125 g ai/ha, scale 0 to 100 (0 no effect, 100 complete control)
How it was run: as §1

[7] = test system: goosegrass (Eleusine indica); experiment: Test C pre/postemergence; details: Postemergence; for Goosegrass plant response rating: 125 g ai/ha, scale 0 to 100 (0 no effect, 100 complete control)
How it was run: as §1

[8] = test system: pigweed (Amaranthus retroflexus); experiment: Test C pre/postemergence; details: Postemergence; for Pigweed plant response rating: 125 g ai/ha, scale 0 to 100 (0 no effect, 100 complete control)
How it was run: as §1

[9] = test system: bermudagrass (Cynodon dactylon); experiment: Test C pre/postemergence; details: Postemergence; for Bermudagrass plant response rating: scale 0 to 100 (0 no effect, 100 complete control)
How it was run: as §1

[10] = test system: common ragweed (Ambrosia elatior); experiment: Test C pre/postemergence; details: Postemergence; for Ragweed plant response rating: 125 g ai/ha, scale 0 to 100 (0 no effect, 100 complete control)
How it was run: as §1

[11] = Postemergence, 125 g ai/ha, 0 to 100 scale (0 no effect, 100 complete control)
[12] = Postemergence, 500 g ai/ha, 0 to 100 scale (0 no effect, 100 complete control)
[13] = Preemergence, 125 g ai/ha, 0 to 100 scale where 0 is no effect and 100 is complete control, approximately ten days
[14] = Preemergence, 500 g ai/ha, 0 to 100 scale where 0 is no effect and 100 is complete control, approximately ten days

| SMILES | Plant response rating (scale of 0 to 100), Chickweed ([1]; 16 g ai/ha) | Plant response rating (scale of 0 to 100), Chickweed ([1]; 31 g ai/ha) | Plant response rating (scale of 0 to 100), Chickweed ([1]; 62 g ai/ha) | Chickweed plant response rating [1] | Plant response rating, Barnyardgrass [2, 11] | Plant response rating, Barnyardgrass [2, 12] | Plant response rating, Barnyardgrass [2, 13] | Plant response rating, Barnyardgrass [2, 14] | Plant response rating, Crabgrass [3, 11] | Plant response rating, Crabgrass [3, 12] | Plant response rating, Crabgrass [3, 13] | Plant response rating, Crabgrass [3, 14] | Plant response rating (scale of 0 to 100), Nutsedge, Yellow ([4]; 16 g ai/ha) | Plant response rating (scale of 0 to 100), Nutsedge, Yellow ([4]; 31 g ai/ha) | Plant response rating (scale of 0 to 100), Nutsedge, Yellow ([4]; 62 g ai/ha) | Nutsedge, Yellow plant response rating [4] | Plant response rating (scale of 0 to 100), Velvetleaf ([5]; 16 g ai/ha) | Plant response rating (scale of 0 to 100), Velvetleaf ([5]; 31 g ai/ha) | Plant response rating (scale of 0 to 100), Velvetleaf ([5]; 62 g ai/ha) | Velvetleaf plant response rating [5] | other results |
| --- | --- | --- | --- | --- | --- | --- | --- | --- | --- | --- | --- | --- | --- | --- | --- | --- | --- | --- | --- | --- | --- |
| COC(=O)c1nc(-c2ccc(Cl)cc2)nc(N)c1Br [Compound 83] | 0 | 0 | 10 | 30 | 0 | 10 | 0 | 5 | 0 | 10 | 0 | 5 | 60 | 60 | 60 | 75 | 70 | 85 | 85 | 100 | Plant response rating (scale of 0 to 100), Cupgrass, Woolly ([6]; 16 g ai/ha): 15; Plant response rating (scale of 0 to 100), Cupgrass, Woolly ([6]; 31 g ai/ha): 15; Plant response rating (scale of 0 to 100), Cupgrass, Woolly ([6]; 62 g ai/ha): 45; Cupgrass, Woolly plant response rating [6]: 60; Plant response rating (scale of 0 to 100), Goosegrass ([7]; 16 g ai/ha): 10; Plant response rating (scale of 0 to 100), Goosegrass ([7]; 31 g ai/ha): 10; Plant response rating (scale of 0 to 100), Goosegrass ([7]; 62 g ai/ha): 30; Goosegrass plant response rating [7]: 45; Plant response rating (scale of 0 to 100), Pigweed ([8]; 16 g ai/ha): 95; Plant response rating (scale of 0 to 100), Pigweed ([8]; 31 g ai/ha): 95; Plant response rating (scale of 0 to 100), Pigweed ([8]; 62 g ai/ha): 100; Pigweed plant response rating [8]: 100; Plant response rating (scale of 0 to 100), Bermudagrass ([9]; 16 g ai/ha): 0; Plant response rating (scale of 0 to 100), Bermudagrass ([9]; 31 g ai/ha): 5; Bermudagrass plant response rating ([9]; 62 g ai/ha): 20; Bermudagrass plant response rating ([9]; 125 g ai/ha): 55; Plant response rating (scale of 0 to 100), Ragweed ([10]; 16 g ai/ha): 65; Plant response rating (scale of 0 to 100), Ragweed ([10]; 31 g ai/ha): 70; Plant response rating (scale of 0 to 100), Ragweed ([10]; 62 g ai/ha): 75; Ragweed plant response rating [10]: 95 |
| Nc1nc(-c2ccc(Br)cc2)nc(C(=O)O)c1Br [Compound 136] | 45 | 50 | 50 | 50 | 50 | 80 | 5 | 40 | 35 | 70 | 20 | 60 | 60 | 65 | 75 | 75 | 85 | 85 | 90 | 95 | Plant response rating (scale of 0 to 100), Cupgrass, Woolly ([6]; 16 g ai/ha): 55; Plant response rating (scale of 0 to 100), Cupgrass, Woolly ([6]; 31 g ai/ha): 65; Plant response rating (scale of 0 to 100), Cupgrass, Woolly ([6]; 62 g ai/ha): 70; Cupgrass, Woolly plant response rating [6]: 70; Plant response rating (scale of 0 to 100), Goosegrass ([7]; 16 g ai/ha): 50; Plant response rating (scale of 0 to 100), Goosegrass ([7]; 31 g ai/ha): 65; Plant response rating (scale of 0 to 100), Goosegrass ([7]; 62 g ai/ha): 75; Goosegrass plant response rating [7]: 80; Plant response rating (scale of 0 to 100), Pigweed ([8]; 16 g ai/ha): 90; Plant response rating (scale of 0 to 100), Pigweed ([8]; 31 g ai/ha): 100; Plant response rating (scale of 0 to 100), Pigweed ([8]; 62 g ai/ha): 100; Pigweed plant response rating [8]: 100; Plant response rating (scale of 0 to 100), Bermudagrass ([9]; 16 g ai/ha): 75; Plant response rating (scale of 0 to 100), Bermudagrass ([9]; 31 g ai/ha): 80; Bermudagrass plant response rating ([9]; 62 g ai/ha): 80; Bermudagrass plant response rating ([9]; 125 g ai/ha): 85; Plant response rating (scale of 0 to 100), Ragweed ([10]; 16 g ai/ha): 75; Plant response rating (scale of 0 to 100), Ragweed ([10]; 31 g ai/ha): 85; Plant response rating (scale of 0 to 100), Ragweed ([10]; 62 g ai/ha): 90; Ragweed plant response rating [10]: 95 |
